According to patent publication US11203591B2, “Substituted 6-azabenzimidazole compounds” (Gilead Sciences, Inc., priority 2018, dated 2021):

Biological target: human HPK1 (MAP4K1) (Homo sapiens (Human), UniProt Q92918)
Experiment: HPK1 IC50 Assay (TR-FRET peptide phosphorylation)
Assay type: biochemical
Outline: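 Readout: TR-FRET (665 nm/620 nm) after EDTA stop, detecting STK S1 peptide (1 μM) phosphorylation by 0.15 nM HPK1 kinase domain, ATP-pre-activated, at 10 μM ATP over 3 h, 25° C, pH 7.0. IC50s from four-parameter variable-slope fits, normalized to staurosporine and DMSO, averaged geometrically.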

[1] = 0.15 nM HPK1, 10 μM ATP, 1 μM STK S1 peptide substrate, geometric mean
[2] = recombinant HPK1 kinase domain 0.15 nM, 10 μM ATP, 1 μM STK S1 peptide, geometric mean of multiple experiments

Sequence of human HPK1 (MAP4K1) (Q92918 17-274): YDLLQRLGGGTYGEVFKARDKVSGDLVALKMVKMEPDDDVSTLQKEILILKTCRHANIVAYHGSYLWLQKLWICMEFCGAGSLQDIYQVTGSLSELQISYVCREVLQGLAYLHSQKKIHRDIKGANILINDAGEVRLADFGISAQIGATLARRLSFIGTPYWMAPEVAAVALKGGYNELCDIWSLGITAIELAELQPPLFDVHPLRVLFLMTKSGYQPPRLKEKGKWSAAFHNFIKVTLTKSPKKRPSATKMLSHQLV

IC50 [1]	IC50 [2]	SMILES
0.1 nM		CCNC(=O)c1cc(Nc2nc(-c3cnc4c(c3)N([C@H]3C[C@@](C)(N5CCCCC5)C3)C(=O)C4(C)C)cc3ncn(C(C)C)c23)c(F)c(F)c1Cl [Example 286, 2-chloro-5-((6-(3,3-dimethyl-1-((1s,3s)-3-methyl-3-(piperidin-1-yl)cyclobutyl)-2-oxo-2,3-dihydro-1H-pyrrolo[3,2-b]pyridin-6-yl)-3-isopropyl-3H-imidazo[4,5-c]pyridin-4-yl)amino)-N-ethyl-3,4-difluorobenzamide]
	0.2 nM	CC(=O)N1CCC2(CC1)C(=O)N([C@H]1C[C@@H](N3CCCCC3)C1)c1cc(-c3cc4ncn(C(C)C)c4c(Nc4cc(C(=O)NC(C)C)c(C)cc4F)n3)ccc12 [Example 129]
	0.08 nM	CNC(=O)c1cc(Nc2nc(-c3ccc4c(c3)N([C@H]3C[C@@H](N5C[C@H]6CC[C@@H]5C6)C3)C(=O)C43CCN(C(=O)C45CC(C4)C5)CC3)cc3ncn(C4CC4)c23)ccc1C [Example 43]
	0.08 nM	CNC(=O)c1cc(Nc2nc(-c3ccc4c(c3)N([C@H]3C[C@@H](N5CC(C)(C)CC(C)(C)C5)C3)C(=O)C43CCN(C(C)=O)CC3)cc3ncn(C4CC4)c23)ccc1C [Example 160]
	0.2 nM	Cc1cc(F)c(Nc2nc(-c3ccc4c(c3)N([C@H]3C[C@@H](N5CCCCC5)C3)C(=O)C43CCOCC3)cc3ncn(C(C)C)c23)cc1C(=O)NC(C)C [Example 125]
	0.1 nM	CC(C)n1cnc2cc(-c3cnc4c(c3)N([C@H]3C[C@@](C)(N5CCC6CC6C5)C3)C(=O)C4(C)C)nc(Nc3cc(C(=O)NC4(CF)CC4)c(Cl)c(F)c3F)c21 (mixture of isomers) [Example 257, 5-((6-(1-((1s,3s)-3-(3-azabicyclo[4.1.0]heptan-3-yl)-3-methylcyclobutyl)-3,3-dimethyl-2-oxo-2,3-dihydro-1H-pyrrolo[3,2-b]pyridin-6-yl)-3-isopropyl-3H-imidazo[4,5-c]pyridin-4-yl)amino)-2-chloro-3,4-difluoro-N-(1-(fluoromethyl)cyclopropyl)benzamide]
	0.6 nM	CNC(=O)c1cc(Nc2nc(-c3ccc4c(c3)N([C@H]3C[C@@H](N5CCCCC5)C3)CC4(C)C)cc3ncn(C4CC4)c23)ccc1C [Example 58]
	0.4 nM	CNC(=O)c1ccc(F)c(Nc2nc(-c3ccc4c(c3)N([C@H]3C[C@@H](N5CCCCC5)C3)C(=O)C43CCN(C(C)=O)CC3)cc3ncn(C4CC4)c23)c1 [Example 97]
	0.04 nM	CC(C)n1cnc2cc(-c3cnc4c(c3)N([C@H]3C[C@@](C)(N5CCCCCC5)C3)C(=O)C4(C)C)nc(Nc3cc(C(=O)NC4(CF)CC4)c(Cl)c(F)c3F)c21 [Example 249, 5-((6-(1-((1s,3s)-3-(azepan-1-yl)-3-methylcyclobutyl)-3,3-dimethyl-2-oxo-2,3-dihydro-1H-pyrrolo[3,2-b]pyridin-6-yl)-3-isopropyl-3H-imidazo[4,5-c]pyridin-4-yl)amino)-2-chloro-3,4-difluoro-N-(1-(fluoromethyl)cyclopropyl)benzamide]
	0.1 nM	Cc1ccc(Nc2nc(-c3ccc4c(c3)N([C@H]3C[C@@H](N5CCCCC5)C3)C(=O)C4(C)C)cc3ncn(C(C)C)c23)cc1C(=O)NCC(C)(F)F [Example 28]
	0.1 nM	CNC(=O)c1cc(Nc2nc(-c3ccc4c(c3)N([C@H]3C[C@@H](N5CCCC5)C3)C(=O)C4(C)C)cc3ncn(C(C)C)c23)ccc1C [Example 103]
	0.1 nM	CNC(=O)c1cc(Nc2nc(-c3ccc4c(c3)N([C@H]3C[C@@H](NC5CCC(F)(F)CC5)C3)C(=O)C4(C)C)cc3ncn(C(C)C)c23)ccc1C [Example 80]
	0.3 nM	CCNC(=O)c1cc(Nc2nc(-c3ccc4c(c3)N([C@H]3C[C@@H](N5CCCCC5)C3)C(=O)C43CN(C(C)=O)C3)cc3ncn(C(C)C)c23)c(F)cc1C [Example 178]
	0.06 nM	Cc1c(C(=O)NC2(C(F)F)CC2)cc(Nc2nc(-c3cnc4c(c3)N([C@H]3C[C@@](C)(N5CC6CCC5CO6)C3)C(=O)C4(C)C)cc3ncn(C(C)C)c23)c(F)c1F (stereo partly shown) [Example 224, 5-((6-(1-((1s,3s)-3-(2-oxa-5-azabicyclo[2.2.2]octan-5-yl)-3-methylcyclobutyl)-3,3-dimethyl-2-oxo-2,3-dihydro-1H-pyrrolo[3,2-b]pyridin-6-yl)-3-isopropyl-3H-imidazo[4,5-c]pyridin-4-yl)amino)-N-(1-(difluoromethyl)cyclopropyl)-3,4-difluoro-2-methylbenzamide]
	0.1 nM	CNC(=O)c1cc(Nc2nc(-c3ccc4c(c3)N([C@H]3C[C@@H](N5CCCCC5)C3)C(=O)C43CCN(C(=O)C4(C)CCC4)CC3)cc3ncn(C4CC4)c23)ccc1C [Example 149]
0.06 nM		CCNC(=O)c1cc(Nc2nc(-c3ccc4c(c3)N([C@H]3C[C@@](C)(N5CCCCC5)C3)C(=O)C4(C)C)cc3ncn(C(C)C)c23)c(F)cc1C [Example 276, 5-((6-(3,3-dimethyl-1-((1s,3s)-3-methyl-3-(piperidin-1-yl)cyclobutyl)-2-oxoindolin-6-yl)-3-isopropyl-3H-imidazo[4,5-c]pyridin-4-yl)amino)-N-ethyl-4-fluoro-2-methylbenzamide]
	0.05 nM	CC(C)n1cnc2cc(-c3ccc4c(c3)N([C@H]3C[C@@](C)(N5CCCCC5)C3)C(=O)C4(C)C)nc(Nc3cc(C(=O)NC4(C(F)F)CC4)cc(F)c3F)c21 [Example 243, N-(1-(difluoromethyl)cyclopropyl)-3-((6-(3,3-dimethyl-1-((1s,3s)-3-methyl-3-(piperidin-1-yl)cyclobutyl)-2-oxoindolin-6-yl)-3-isopropyl-3H-imidazo[4,5-c]pyridin-4-yl)amino)-4,5-difluorobenzamide]
	0.1 nM	Cc1c(C(=O)NC2(C(F)F)CC2)cc(Nc2nc(-c3cnc4c(c3)N([C@H]3C[C@@](C)(N5CCCCC5)C3)C(=O)C4(C)C)cc3ncn(C(C)C)c23)c(F)c1F [Example 185, N-(1-(difluoromethyl)cyclopropyl)-5-((6-(3,3-dimethyl-1-((1s,3s)-3-methyl-3-(piperidin-1-yl)cyclobutyl)-2-oxo-2,3-dihydro-1H-pyrrolo[3,2-b]pyridin-6-yl)-3-isopropyl-3H-imidazo[4,5-c]pyridin-4-yl)amino)-3,4-difluoro-2-methylbenzamide]
	0.1 nM	CNC(=O)c1cc(Nc2nc(-c3ccc4c(c3)N([C@H]3C[C@@H](N5CCCCC5)C3)C(=O)C4(C)C)cc3ncn(C4CC4)c23)ccc1Cl [Example 40]
0.07 nM		CC(C)n1cnc2cc(-c3ccc4c(c3)N([C@H]3C[C@@](C)(N5CCCCC5)C3)C(=O)C4(C)C)nc(Nc3cc(C(=O)NC4(CF)CC4)c(Cl)c(F)c3F)c21 [Example 292, 2-chloro-5-((6-(3,3-dimethyl-1-((1s,3s)-3-methyl-3-(piperidin-1-yl)cyclobutyl)-2-oxoindolin-6-yl)-3-isopropyl-3H-imidazo[4,5-c]pyridin-4-yl)amino)-3,4-difluoro-N-(1-(fluoromethyl)cyclopropyl)benzamide]
	0.05 nM	CC(C)n1cnc2cc(-c3ccc4c(c3)N([C@H]3C[C@@H](N5CCCCC5)C3)C(=O)C4(C)C)nc(Nc3cc(C(=O)NC4(C(F)F)CC4)c(Cl)c(F)c3F)c21 [Example 244, 2-chloro-N-(1-(difluoromethyl)cyclopropyl)-5-((6-(3,3-dimethyl-2-oxo-1-((1s,3s)-3-(piperidin-1-yl)cyclobutyl)indolin-6-yl)-3-isopropyl-3H-imidazo[4,5-c]pyridin-4-yl)amino)-3,4-difluorobenzamide]

SMILES	IC50 [1]	IC50 [2]
Cc1cc(F)c(Nc2nc(-c3ccc4c(c3)N([C@H]3C[C@@H](N5CCCCC5)C3)C(=O)C43CCN(C4COC4)CC3)cc3ncn(C(C)C)c23)cc1C(=O)NC(C)C [Example 99]		0.2 nM
